The nature of data set [1]: collision cross section (TIMS, N2 drift gas) of the primary ion; higher = larger gas-phase ion size.
The nature of data set [2]: reversed-phase LC retention time (C18, 15 min MeOH gradient); higher = more hydrophobic / later elution.
[3] abbreviates: ionization mode: ESI+, ion species: [M+H]+.
[4] abbreviates: ionization mode: ESI-, ion species: [M-H]-.
The mark [5] stands for this setting: ionization mode: ESI+, ion species: [M]+.

Take `CC(C)NCC(O)c1ccc(NS(C)(=O)=O)cc1` (stereo not drawn) [Sotalol]: the collision cross section in data set [1] (setting [3]) is given as 166.72 Å²; in data set [1] (setting [4]) it was 170.22 Å². Further, the “reversed-phase LC retention time” value in data set [2] (setting [3]) turned out to be 5.7 min; in data set [2] (setting [4]), 7.58 min.
Compound `CC[C@H]1CCC[C@H](O[C@H]2CC[C@H](N(C)C)[C@@H](C)O2)[C@@H](C)C(=O)C2=C[C@@H]3[C@@H](C=C[C@@H]4C[C@@H](O[C@@H]5O[C@@H](C)[C@H](OC)[C@@H](OC)[C@H]5OC)C[C@@H]34)[C@@H]2CC(=O)O1` [Spinosyn A] had a collision cross section in data set [1] (setting [3]) of 267.49 Å². Also, the “reversed-phase LC retention time” value in data set [2] (setting [3]) was 15.9 min.
In the same order, the values of `CCC(C)(C)C(=O)OC1=C(c2ccc(Cl)cc2Cl)C(=O)OC12CCCCC2` [Spirodiclofen] are 193.38 Å² and 11.5 min.
In the same order, the values of `CCCN(CC)CC1COC2(CCC(C(C)(C)C)CC2)O1` (stereo not drawn) [Spiroxamine] are 177.53 Å² and 14.2 min.
`OCC1OC(OC2(CCl)OC(CCl)C(O)C2O)C(O)C(O)C1Cl` (stereo not drawn) [Sucralose] showed a collision cross section in data set [1] (setting [4]) of 174.98 Å². For the same compound, the “reversed-phase LC retention time” value in data set [2] (setting [4]) was found to be 8.22 min.
`CS(=O)(=O)c1ccc(C(=O)C2C(=O)CCCC2=O)c(Cl)c1` [Sulcotrione]: the collision cross section in data set [1] (setting [3]) came out at 175.92 Å²; in data set [1] (setting [4]) it was 173.26 Å². The “reversed-phase LC retention time” value was found to be 11.1 min in data set [2] (setting [3]) and 6.87 min in data set [2] (setting [4]).
As to `COc1cc(NS(=O)(=O)c2ccc(N)cc2)nc(OC)n1` [Sulfadimethoxine], the figures for the collision cross section in data set [1] (setting [3]) and in data set [1] (setting [4]) were 170.07 Å² and 170.58 Å², respectively. Besides, the “reversed-phase LC retention time” value in data set [2] (setting [3]) amounted to 9.96 min; in data set [2] (setting [4]), 6.81 min.
On the same counts, the results for `Cc1cc(C)nc(NS(=O)(=O)c2ccc(N)cc2)n1` [Sulfamethazine] are 163.66 Å², 165.06 Å², 7.95 min and 7.46 min.
As to `Nc1ccc(S(=O)(=O)Nc2ccccn2)cc1` [Sulfapyridine], the collision cross section is recorded as 154.05 Å² in data set [1] (setting [3]) and 155.15 Å² in data set [1] (setting [4]). For the same compound, the “reversed-phase LC retention time” value in data set [2] (setting [3]) stood at 6.69 min; in data set [2] (setting [4]), 6.7 min.
In the same order, the values of `Nc1ccc(S(=O)(=O)Nc2nccs2)cc1` [Sulfathiazole] are 153.27 Å², 152.72 Å², 6.39 min and 5.71 min.
In data set [1] (setting [3]), `O=P(OC(CCl)CCl)(OC(CCl)CCl)OC(CCl)CCl` [TDCPP] came in with a collision cross section of 177.62 Å². In addition, in data set [2] (setting [3]), the “reversed-phase LC retention time” value stood at 15.5 min.
`CC(C)CC(C)(O)C#CC(C)(O)CC(C)C` (stereo not drawn) [TMDD] returned a collision cross section in data set [1] (setting [3]) of 168.69 Å². Also, the “reversed-phase LC retention time” value in data set [2] (setting [3]) turned out to be 16.4 min.
On the same counts, the results for `CC/C(=C(\c1ccccc1)c1ccc(OCCN(C)C)cc1)c1ccccc1` [Tamoxifen] are 198.29 Å² and 15.7 min.
In the case of `O=C1c2c(O)cc(O)cc2O[C@H](c2ccc(O)c(O)c2)[C@H]1O` [Taxifolin], the collision cross section in data set [1] (setting [4]) is reported as 164.44 Å². Besides, the “reversed-phase LC retention time” value in data set [2] (setting [4]) turned out to be 5.86 min.
As to `CC(C)(C)C(O)(CCc1ccc(Cl)cc1)Cn1cncn1` (stereo not drawn) [Tebuconazole], the collision cross section in data set [1] (setting [3]) came out at 168.02 Å². Besides, in data set [2] (setting [3]), the “reversed-phase LC retention time” value stood at 15.5 min.
As for `CCCc1nc2c(C)cc(-c3nc4ccccc4n3C)cc2n1Cc1ccc(-c2ccccc2C(=O)O)cc1` [Telmisartan], the collision cross section turned out to be 231.26 Å² in data set [1] (setting [3]) and 237.73 Å² in data set [1] (setting [4]). The results for the “reversed-phase LC retention time” value in data set [2] (setting [3]) and in data set [2] (setting [4]) were 14.2 min and 14.6 min, respectively.
For the compound `CN1C(=O)C(O)N=C(c2ccccc2)c2cc(Cl)ccc21` (stereo not drawn) [Temazepam], in data set [1] (setting [3]), the collision cross section is 167.53 Å². In data set [2] (setting [3]), the “reversed-phase LC retention time” value was 13.4 min.
For `CCC(=NOC/C=C/Cl)C1=C(O)CC(C2CCOCC2)CC1=O` (stereo not drawn) [Tepraloxydim (two peaks)], the collision cross section is on record as 186.68 Å² in data set [1] (setting [3]) and 181.89 Å² in data set [1] (setting [4]). In addition, the results for the “reversed-phase LC retention time” value in data set [2] (setting [3]) and in data set [2] (setting [4]) were 14.7 min and 9.17 min, respectively.
The compound `CN(C/C=C/C#CC(C)(C)C)Cc1cccc2ccccc12` [Terbinafine] returned a collision cross section in data set [1] (setting [3]) of 187.34 Å². The “reversed-phase LC retention time” value in data set [2] (setting [3]) is 13.8 min.
The compound `CCNc1nc(=O)nc(NC(C)(C)C)[nH]1` [Terbuthylazine-2-hydroxy] displayed a collision cross section in data set [1] (setting [4]) of 151.91 Å². Further, the “reversed-phase LC retention time” value in data set [2] (setting [4]) came to 12.4 min.
The compound `CCNc1nc(Cl)nc(NC(C)(C)C)n1` [Terbuthylazine] came in with a collision cross section in data set [1] (setting [3]) of 153.3 Å². Further, in data set [2] (setting [3]), the “reversed-phase LC retention time” value is 14 min.
In the same order, the values of `CCNc1nc(NC(C)(C)C)nc(SC)n1` [Terbutryn] are 160.25 Å² and 14 min.
In the same order, the values of `C[C@]12CC[C@H]3[C@@H](CCC4=CC(=O)CC[C@@]43C)[C@@H]1CC[C@@H]2O` [Testosterone] are 172.76 Å² and 14.2 min.
`CC(C)(c1cc(Br)c(O)c(Br)c1)c1cc(Br)c(O)c(Br)c1` [Tetrabromobisphenol A]: the collision cross section in data set [1] (setting [4]) came out at 192.83 Å². The “reversed-phase LC retention time” value in data set [2] (setting [4]) was 15.3 min.
The compound `CCCC[N+](CCCC)(CCCC)CCCC` [Tetrabutylammonium] returned a collision cross section in data set [1] (setting [5]) of 167.79 Å². The “reversed-phase LC retention time” value in data set [2] (setting [5]) is 11 min.
Take `CCCCNc1ccc(C(=O)OCCN(C)C)cc1` [Tetracain]: in data set [1] (setting [3]), the collision cross section is 173.87 Å². Also, in data set [2] (setting [3]), the “reversed-phase LC retention time” value turned out to be 11.2 min.

Values taken from the supplement of paper PMC12613149.
